US8507472B2 (priority 2010, dated 2013)

Experiments:
Botrytis cinerea = assay: Botrytis test (bean)/protective; format: in vivo; settings: 100 ppm active compound, protective, evaluation 2 days after inoculation
Summary of the method: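 Protective spray test: leaves inoculated with two B. cinerea-colonized agar plugs after the spray dried, then incubated in darkness, ~20° C., 100% relative humidity. Formulation was acetone/dimethylacetamide with emulsifier, water-diluted. Lesion size rated 2 days post-inoculation as efficacy (0% matching control, 100% infection-free).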

Alternaria solani = assay: Alternaria test (tomato)/protective; format: in vivo; settings: 500 ppm active compound; tomato; protective; evaluation 7 days after inoculation
Summary of the method: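 Treatment was protective: spray application at the stated rate came one day before spore inoculation. Incubation was 24 h at 22 °C and 100% humidity, then 20 °C and 96% humidity. Infection was rated at day 7 as % efficacy against the control, with 100% meaning no disease.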

Fusarium graminearum [1] = format: in vivo; settings: 1000 ppm active compound; barley; protective; evaluation 5 days after inoculation
Uromyces appendiculatus = assay: Uromyces test (bean)/protective; format: in vivo; settings: 100 ppm active compound; bean; protective; evaluation 10 days after inoculation
Summary of the method: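 Young bean plants sprayed with compound formulated in acetone/dimethylacetamide with emulsifier, inoculated with Uromyces appendiculatus spores after drying, held 1 day at ~20 °C and 100% humidity, then greenhouse ~21 °C, ~90% humidity. Efficacy scored 10 days post-inoculation, 0% = untreated control, 100% = no infection.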

Puccinia triticina = Puccinia triticina test (wheat)/protective; format: in vivo; settings: 1000 ppm active compound; wheat; protective; evaluation 8 days after inoculation
Summary of the method: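 Protective test: young wheat plants sprayed with compound (dimethylacetamide/alkylaryl polyglycol ether formulation, water-diluted) at stated rate, then inoculated with Puccinia triticina spores once dry; 48 h at 20 °C, 100% RH, then greenhouse ~20 °C, ~80% RH. Efficacy scored 8 days post-inoculation, 0% = control, 100% = no infection.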

DON/AcDON production = assay: microbe, parasite or virus in culture; format: cell-based, Fusarium graminearum; settings: Fusarium graminearum, 168 h, 7 days at 28° C.
Pyrenophora teres = Pyrenophora teres test (barley)/protective; format: in vivo; settings: 500 ppm active compound; barley; protective; evaluation 7-9 days after inoculation
Summary of the method: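 Efficacy, read 7-9 days after spore inoculation, runs from 0% (equal to untreated control) to 100% (no infection). Barley sprayed with water-diluted DMF/emulsifier formulation was inoculated one day later, incubated 48 h at 22° C. and 100% rel. humidity, then held at 20° C. and 80% humidity.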

Phakopsora pachyrhizi = assay: Phakopsora test (Sojabohnen)/protective; format: in vivo; settings: 250 ppm active compound, protective, evaluation 1 day after inoculation
Method: Solvent: 28.5 parts by weight of acetone
Emulsifier: 1.5 parts by weight of alkylaryl polyglycol ether
To produce a suitable preparation of active compound, 1 part by weight of active compound is mixed with the stated amount of solvent, and the concentrate is diluted with water and the stated amount of emulsifier to the desired concentration.
[…] 1 day after the treatment, the plants are inoculated with an aqueous spore suspension of Phakopsora pachyrhizi. The plants are then placed in a greenhouse at 80% relative atmospheric humidity and 20° C.
Evaluation is carried out 1 day after the inoculation. 0% means an efficacy which corresponds to that of the control, whereas an efficacy of 100% means that no infection is observed.

[2] = log P determination by HPLC retention times (alkan-2-one calibration)
Fusarium graminearum [3] = assay: microbe, parasite or virus in culture; format: cell-based; settings: Fusarium graminearum, 72 h, read-out: % inhibition of the fungal growth of Fusarium graminearum at 50 μM
Sphaerotheca fuliginea = assay: Sphaerotheca test (cucumber)/protective; format: in vivo; settings: 500 ppm active compound; cucumber; protective; evaluation 7 days after inoculation
Summary of the method: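 Infection was rated 7 days after spore inoculation as % efficacy (0% = control level, 100% = no disease). Inoculation followed 1 day after preventive spray of young cucumbers with compound formulated in N,N-dimethylformamide plus emulsifier and diluted with water; plants were held at 23 °C and 70% relative humidity.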

Venturia inaequalis = assay: Venturia test (apple)/protective; format: in vivo; settings: 100 ppm active compound, protective, evaluation 10 days after inoculation
Summary of the method: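 Efficacy read 10 days after inoculation, where 100% is no infection and 0% matches untreated control. Plants kept 1 day at ~20° C and 100% relative humidity after conidia inoculation, then ~21° C and ~90% humidity; inoculation followed drying of a protective spray of compound formulated in acetone/dimethylacetamide plus emulsifier and diluted with water.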

[4] = system: Fusarium nivale (var. majus); assay: Fusarium nivale (var. majus) test (wheat)/protective; format: in vivo; settings: 1000 ppm active compound, protective, evaluation 5 days after inoculation
Summary of the method: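 Protective spray of young wheat plants at the stated rate (compound in dimethylacetamide with emulsifier, diluted in water), then inoculation with Fusarium nivale spores once dry. Plants kept at 10 °C and 100% humidity; scored 5 days after inoculation as % efficacy, where 0% equals untreated control and 100% means no infection.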

Phytophthora infestans = format: in vivo; settings: 500 ppm active compound; tomato; protective; evaluation 7 days after inoculation
Leptosphaeria nodorum = Leptosphaeria nodorum test (wheat)/protective; format: in vivo; settings: 500 ppm active compound; wheat; protective; evaluation 7-9 days after inoculation
Summary of the method: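 Young wheat plants were sprayed protectively, then inoculated 1 day later with L. nodorum spores and held 48 h at 100% humidity and 22° C. They were then kept in a greenhouse at 90% humidity and 22° C. Efficacy was scored 7-9 days post-inoculation, where 0% equals control and 100% means no infection.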

Compound `CCC(=O)Nc1cc(-c2c(-c3ccc(F)cc3)nn3c2CCCC3)ccn1` [Example 5, N-{4-[2-(4-Fluorophenyl)-4,5,6,7-tetrahydropyrazolo[1,5-a]pyridin-3-yl]pyridin-2-yl}propanamide] has an efficacy in % (Botrytis cinerea) of 100%, an efficacy in % (Alternaria solani) of 100% and an efficacy in % (Fusarium graminearum [1]) of 100%. It also gave an efficacy in % (Uromyces appendiculatus) of 98%, an efficacy in % (Puccinia triticina) of 100% and an inhibition at 50 µM (DON/AcDON production) of 99%. For the same compound, the efficacy in % (Pyrenophora teres) was 100%, the efficacy in % (Phakopsora pachyrhizi) was 80% and the chromatographic logP ([2]; log P(HCOOH), HCOOH, preparation examples in the text) was 1.97. It also gave a chromatographic logP ([2]; log P, values marked [a] in Table 1) of 1.97, a chromatographic logP ([2]; log P, values marked [b] in Table 1) of 2.58 and an inhibition at 50 µM (Fusarium graminearum [3]) of 100%. It also gave an efficacy in % (Sphaerotheca fuliginea) of 95%, an efficacy in % (Venturia inaequalis) of 98% and an efficacy in % [4] of 100%. For the same compound, the efficacy in % (Phytophthora infestans) was 95% and the efficacy in % (Leptosphaeria nodorum) was 94%.
